One test has as its target T1, KRas G12C (Homo sapiens, UniProt P01116, G12C).
T1 construct: Biotinylated KRas (corresponding to amino acids 1-169, produced at Accelegan Inc.); biotin (biotinylated); purchased Accelegan Inc
Kind of test: KRas binding assay, TR-FRET displacement of Cy5 labelled tracer. Conditions: 60-minute incubation at room temperature, 1% DMSO, pH 7.5. An outline of the steps:
(§1)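 Each mutant protein, a biotinylated 1-169 construct, was combined with terbium streptavidin, tracer and compound. After sixty minutes at room temperature TR-FRET was recorded. POC data were fitted with a four-parameter IC50 model.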

The next test concerns the target T2, KRas G12S (Homo sapiens, UniProt P01116, G12S).
T2 construct: Biotinylated KRas (corresponding to amino acids 1-169, produced at Accelegan Inc.); biotin (biotinylated); purchased Accelegan Inc
The description is as above. Conditions: 60-minute incubation at room temperature, 1% DMSO, pH 7.5. In short, it runs like this: as §1

Another test concerns the target T3, KRas WT (Homo sapiens, UniProt P01116).
T3 construct: Biotinylated KRas (corresponding to amino acids 1-169, produced at Accelegan Inc.); biotin (biotinylated); purchased Accelegan Inc
The test is described as above. Conditions: 60-minute incubation at room temperature, 1% DMSO, pH 7.5. An outline of the steps:
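Final conditions: 1% DMSO, pH 7.5 HEPES buffer, 60 min, room temperature. Protein: biotin-KRas 1-169 with terbium streptavidin. Output: IC50, four-parameter fit of POC.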

Test [1] deals with T4, KRas-mediated phosphorylation of ERK in MKN1 cells (Homo sapiens, UniProt P01116).
T4 construct: pERK HTRF read-out
T4 sequence (P01116 1-188 isoform P01116-2): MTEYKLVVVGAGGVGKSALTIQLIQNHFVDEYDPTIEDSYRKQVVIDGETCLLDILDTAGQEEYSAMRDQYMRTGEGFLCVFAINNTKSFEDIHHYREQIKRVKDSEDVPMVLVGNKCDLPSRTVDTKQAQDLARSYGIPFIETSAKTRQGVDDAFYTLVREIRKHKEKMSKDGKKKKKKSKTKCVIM
Kind of test: Inhibition of KRas-mediated phosphorylation of ERK (HTRF), MKN1 cells. The class given is cell-based. The note with it: MKN1 cells (KRas WT); HTRF pERK; 3 h incubation. On the procedure:
Inhibition of KRas Phosphorylation of ERK (HTRF) by Exemplary Compounds of Formula (Ia) or (Ib)
Cisbio HTRF Advanced pERK Assay Catalog #64AERPEH • Cells: MKN1, PSN1 • Procedure: • 1. Day 1: Seed 6,000 cells/well −25 μl/well in 384-well white solid bottom plate; RPM1_10% FBS. Incubate overnight at 37 °C/5% CO2. • 2.

For test [2], the target named is T5, KRas-mediated phosphorylation of ERK in A549 cells (Homo sapiens, UniProt P01116, G12S).
T5 construct: pERK HTRF read-out
T5 sequence (P01116 1-188 isoform P01116-2 G12S): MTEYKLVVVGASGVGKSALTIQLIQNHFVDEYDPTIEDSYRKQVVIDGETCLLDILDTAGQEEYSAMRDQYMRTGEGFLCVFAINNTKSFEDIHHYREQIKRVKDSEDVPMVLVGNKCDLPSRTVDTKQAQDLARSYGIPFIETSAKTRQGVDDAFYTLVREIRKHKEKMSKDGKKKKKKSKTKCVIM
Kind of test: Inhibition of KRas-mediated phosphorylation of ERK (HTRF), A549 cells. The class given is cell-based. The note with it: HTRF pERK, 3 h incubation.

The target in test [3] is T6, KRas-mediated phosphorylation of ERK in H358 cells (Homo sapiens, UniProt P01116, G12C).
T6 construct: pERK HTRF read-out
T6 sequence (P01116 1-188 isoform P01116-2 G12C): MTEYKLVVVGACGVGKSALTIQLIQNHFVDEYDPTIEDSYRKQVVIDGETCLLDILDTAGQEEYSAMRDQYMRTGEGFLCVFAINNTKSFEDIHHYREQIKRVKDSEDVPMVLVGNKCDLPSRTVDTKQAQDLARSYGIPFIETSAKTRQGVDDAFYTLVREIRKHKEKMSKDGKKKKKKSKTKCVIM
Description: Inhibition of KRas-mediated phosphorylation of ERK (HTRF), H358 cells. The note with it: HTRF pERK, 3 h incubation. It counts as cell-based.

Some results are limits rather than exact numbers.

T2 sequence (P01116 1-169 isoform P01116-2 G12S): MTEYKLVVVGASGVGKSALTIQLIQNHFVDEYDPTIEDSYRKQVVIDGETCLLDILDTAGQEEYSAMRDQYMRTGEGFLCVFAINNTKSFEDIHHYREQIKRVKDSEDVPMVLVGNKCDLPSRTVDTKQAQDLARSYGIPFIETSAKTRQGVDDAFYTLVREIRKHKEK
T1 sequence (P01116 1-169 isoform P01116-2 G12C): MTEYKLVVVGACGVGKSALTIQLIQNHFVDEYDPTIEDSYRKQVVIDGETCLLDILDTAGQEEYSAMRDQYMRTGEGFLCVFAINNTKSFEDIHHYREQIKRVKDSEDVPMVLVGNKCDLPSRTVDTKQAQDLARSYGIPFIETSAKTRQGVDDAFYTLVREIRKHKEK
T3 sequence (P01116 1-169 isoform P01116-2): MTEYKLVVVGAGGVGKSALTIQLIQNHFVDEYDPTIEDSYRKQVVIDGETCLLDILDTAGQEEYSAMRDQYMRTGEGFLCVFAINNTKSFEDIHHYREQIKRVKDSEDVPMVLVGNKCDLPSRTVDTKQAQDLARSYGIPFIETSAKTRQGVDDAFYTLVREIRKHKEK

Take `Cc1ccn(C(=O)CCCCNc2nc(OC[C@@]34CCCN3C[C@H](F)C4)nc3c(F)c(-c4ccc(F)c5sc(N)c(C#N)c45)c(Cl)cc23)n1` [Example 262, 2-amino-4-(6-chloro-8-fluoro-2-(((2R,7aS)-2-fluorotetrahydro-1H-pyrrolizin-7a(5H)-yl)methoxy)-4-((5-(3-methyl-1H-pyrazol-1-yl)-5-oxopentyl)amino)quinazolin-7-yl)-7-fluorobenzo[b]thiophene-3-carbonitrile]: the half-inhibitory concentration (IC50) at KRas G12C worked out at 15 nM; at KRas G12S it was 25 nM; on KRas WT it was 25 nM; in test [1], 593 nM; in test [2], 381 nM; in test [3], 1170 nM.
Take `Cc1ccn(C(=O)C2CCCN(c3nc(OC[C@@]45CCCN4C[C@H](F)C5)nc4c(F)c(-c5c(I)ccc(N)c5C#N)c(Cl)cc34)CC2)n1` (stereo partly drawn) [Example 263, 6-amino-2-(6-chloro-8-fluoro-2-(((2R,7aS)-2-fluorotetrahydro-1H-pyrrolizin-7a(5H)-yl)methoxy)-4-(4-(3-methyl-1H-pyrazole-1-carbonyl)azepan-1-yl)quinazolin-7-yl)-3-iodobenzonitrile]: the concentration for half-maximal inhibition (IC50) at KRas G12C was 1720 nM; on KRas G12S, 490 nM; at KRas WT, 2130 nM; in test [1], 8920 nM; in test [2] it was 495 nM; in test [3] it was over 10000 nM.
Regarding `CCc1cc(O)cc2cccc(-c3c(Cl)cc4c(N5CCCC(C(=O)n6ccc(C)n6)CC5)nc(OC[C@@]56CCCN5C[C@H](F)C6)nc4c3F)c12` (stereo partly drawn) [Example 264, (1-(6-chloro-7-(8-ethyl-6-hydroxynaphthalen-1-yl)-8-fluoro-2-(((2R,7aS)-2-fluorotetrahydro-1H-pyrrolizin-7a(5H)-yl)methoxy)quinazolin-4-yl)azepan-4-yl)(3-methyl-1H-pyrazol-1-yl)methanone], the IC50 on KRas G12C worked out at 170 nM; at KRas G12S, 232 nM; on KRas WT, 732 nM; in test [1], 3490 nM; in test [2] it was 138 nM; in test [3], 847 nM.
Regarding `CN(CCCC(=O)Oc1c(F)cccc1F)c1nc(OC[C@@]23CCCN2C[C@H](F)C3)nc2c(F)c(-c3ccc(F)c4sc(N)c(C#N)c34)c(Cl)cc12` [Example 265, 2,6-difluorophenyl 4-((7-(2-amino-3-cyano-7-fluorobenzo[b]thiophen-4-yl)-6-chloro-8-fluoro-2-(((2R,7aS)-2-fluorotetrahydro-1H-pyrrolizin-7a(5H)-yl)methoxy)quinazolin-4-yl)(methyl)amino)butanoate], the 50% inhibitory concentration (IC50) is 3 nM at KRas G12C; 12 nM on KRas G12S; 35 nM on KRas WT; 844 nM in test [1]; 271 nM in test [2]; 370 nM in test [3].
Regarding `CN(CCCC(=O)N(C)c1cccnc1)c1nc(OC[C@@]23CCCN2C[C@H](F)C3)nc2c(F)c(-c3ccc(F)c4sc(N)c(C#N)c34)c(Cl)cc12` [Example 266, 4-((7-(2-amino-3-cyano-7-fluorobenzo[b]thiophen-4-yl)-6-chloro-8-fluoro-2-(((2R,7aS)-2-fluorotetrahydro-1H-pyrrolizin-7a(5H)-yl)methoxy)quinazolin-4-yl)(methyl)amino)-N-methyl-N-(pyridin-3-yl) butanamide], the IC50 on KRas G12C was 5 nM; at KRas G12S, 9 nM; at KRas WT, 10 nM; in test [1], 236 nM; in test [2], 410 nM; in test [3], 58 nM.

Values taken from US20260356856A1, “KRAS G12S AND G12C INHIBITORS” (MIRATI THERAPEUTICS, INC., priority 2023, published 2026).
